Test results: PubChem BioAssay (NCI)
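The compound was tested at five concentrations on cells cultured in 96-well plates, with a 48-hour exposure period. TGI marks complete inhibition of growth.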

What was measured:
Assay in all cases: NCI anticancer screen, dose series, 48 h
A549 NSCLC = system: A549 NSCLC
HCT-116 colon = system: HCT-116 colon
IGROV1 ovarian = system: IGROV1 ovarian
MALME-3M melanoma = system: MALME-3M melanoma
OVCAR-8 ovarian = system: OVCAR-8 ovarian
SK-MEL-28 melanoma = system: SK-MEL-28 melanoma
SK-MEL-5 melanoma = system: SK-MEL-5 melanoma
SN12C renal = system: SN12C renal
SNB-19 CNS = system: SNB-19 CNS
TK-10 renal = system: TK-10 renal
UACC-62 melanoma = system: UACC-62 melanoma
UO-31 renal = system: UO-31 renal
BT-549 breast = system: BT-549 breast
MDA-MB-435 = system: MDA-MB-435
PC-3 prostate = system: PC-3 prostate
T-47D breast = system: T-47D breast
MDA-N = system: MDA-N

Row | Compound | TGI (A549 NSCLC) [µM] | TGI (HCT-116 colon) [µM] | TGI (IGROV1 ovarian) [µM] | TGI (MALME-3M melanoma) [µM] | TGI (OVCAR-8 ovarian) [µM] | TGI (SK-MEL-28 melanoma) [µM] | TGI (SK-MEL-5 melanoma) [µM] | TGI (SN12C renal) [µM] | TGI (SNB-19 CNS) [µM] | TGI (TK-10 renal) [µM] | TGI (UACC-62 melanoma) [µM] | TGI (UO-31 renal) [µM] | TGI (BT-549 breast) [µM] | TGI (MDA-MB-435) [µM] | TGI (PC-3 prostate) [µM] | TGI (T-47D breast) [µM] | TGI (MDA-N) [µM]
1 | CC([C@H]1CCC2C3CCC4CC5(CC[C@]4(C)C3CC[C@@]21C)c1ccccc1C(=O)N5C)N(C)C (some centres not stated) | > 100 | > 100 | > 100 | 42.5 | > 100 | 35 | 42.9 | > 100 | > 100 | > 100 | 73 | 50.2 | – | – | – | – | –
2 | CCOC(=O)COc1c(OC)cc(C2C3=C(COC3=O)Oc3cc4c(cc32)OCO4)cc1OC (configuration not stated) | > 100 | > 100 | 33.7 | > 100 | 47 | – | 13.8 | > 73 | > 100 | 20.9 | > 31.6 | > 100 | 98.1 | 0.89 | > 100 | 17.7 | –
3 | N#Cc1ccc(-c2nc3ccc(Cl)cc3[nH]2)cc1 | > 100 | – | > 100 | – | > 100 | – | > 100 | > 100 | > 100 | – | – | > 100 | > 100 | – | > 100 | > 100 | > 100
4 | O=C1OC[C@@H]2Cc3c([nH]c4ccccc34)[C@@H](c3cc(O)c(O)c(O)c3)N12 | > 100 | 61.5 | 49.7 | 49.7 | 41.8 | 42.9 | 29.2 | 98.9 | 69.1 | > 100 | 75.5 | > 100 | – | 25.9 | > 100 | > 100 | 82.5
5 | CC(=O)O[C@H]1C(=O)[C@@]2(C)[C@H]([C@H](OC(=O)c3ccccc3)[C@]3(O)C[C@H](OC(=O)[C@H](O)[C@@H](NC(=O)CC(C)C)c4ccccc4)C(C)=C1C3(C)C)[C@]1(OC(C)=O)CO[C@@H]1C[C@@H]2O | > 10 | > 10 | > 10 | > 10 | > 3.24 | > 10 | > 10 | > 10 | > 10 | > 10 | > 10 | > 10 | > 10 | – | – | > 10 | > 10
6 | CC(C)CC1[C@@H](OCc2ccccc2)COS(=O)(=O)N1Cc1ccccc1 (some centres not stated) | > 100 | > 100 | > 100 | > 100 | > 100 | > 100 | > 100 | > 100 | > 100 | > 100 | > 100 | 97.6 | > 100 | > 100 | > 100 | > 100 | –
7 | COc1ccc(CCc2ccc(O)c(C(=O)O)c2)cc1OC | > 100 | > 100 | > 100 | > 100 | > 100 | > 100 | > 100 | > 100 | > 100 | > 100 | > 100 | > 100 | – | > 100 | > 100 | > 100 | > 100
8 | S=C(c1c[nH]c2ccccc12)N1CCN(c2ccccc2)CC1 | – | > 100 | > 100 | 87.4 | > 100 | > 100 | > 100 | 59.9 | > 100 | > 100 | > 100 | – | > 100 | > 100 | > 100 | – | > 100
9 | CC(Oc1ccc(OCC2CCCCC2)cc1)C(=O)O (configuration not stated) | > 100 | > 100 | > 100 | > 100 | > 100 | > 100 | > 100 | > 100 | – | > 100 | > 100 | > 100 | – | – | – | – | –
10 | Cc1ccc(O)c(-c2csc(NCN3CCN(CNc4nc(-c5cc(C)ccc5O)cs4)CC3)n2)c1 | > 100 | > 100 | > 100 | > 100 | > 100 | > 100 | > 100 | > 100 | > 100 | > 100 | > 100 | > 100 | > 100 | > 100 | > 100 | – | > 100
11 | COc1ccc(Nc2nc(N)c(C(=O)c3ccccc3)s2)cc1 | > 74.5 | 3.38 | 37 | > 100 | > 100 | > 100 | 4.01 | 66.3 | > 100 | > 100 | > 100 | 44.2 | > 84.5 | > 100 | > 62.4 | > 100 | –
12 | O=C(O)c1cc(O)c2c(c1)Cc1cccc(O)c1C2=O | > 100 | 67.1 | – | 38.1 | 55.8 | > 100 | 40 | 33.9 | 95.1 | > 100 | 36.8 | 34.2 | > 100 | > 100 | > 100 | > 100 | –
13 | O=C1/C(=C/c2cccs2)NC(=S)N1CN1CCOCC1 | > 100 | > 100 | > 100 | – | > 100 | > 100 | > 100 | > 100 | > 100 | > 100 | > 100 | > 100 | – | > 100 | > 100 | – | > 100
14 | COc1cc2c(cc1OC)C(Cc1ccccc1CCCl)=NCC2 | > 100 | > 100 | > 100 | – | > 100 | > 100 | 54.3 | > 100 | > 100 | > 100 | > 100 | > 100 | > 100 | > 100 | > 100 | > 100 | –
15 | O=C(CCc1ccccc1CO)NCCc1ccccc1 | > 100 | > 100 | > 100 | – | > 100 | > 100 | > 100 | > 100 | > 100 | > 100 | > 100 | > 100 | > 100 | > 100 | > 100 | > 100 | –
